Test results reported in US10179939B2, “Growth-independent detection of cells” (GeneWeave Biosciences, Inc., priority 2014, dated 2019).

Key:
MSSA = assay: Non-replicative transduction particle luxAB reporter assay with cefoxitin; assay type: cell-based, S. aureus; settings: cells not phenotypically resistant to cefoxitin (MSSA); cefoxitin added prior to, simultaneously with, or after transduction particles
From the text: (§1) To test the functionality of non-replicative transduction particles as reporters for detecting the presence of S. aureus cells, various MSSA/MRSA reporter assays were developed. In an embodiment, a non-replicative transduction particle was developed from a S. aureus-specific bacteriophage, and the bacterial luciferase genes luxAB under the control of a constitutive promoter were incorporated. When the non-replicative transduction particle delivered the reporter nucleic acid into S. aureus, the constitutive promoter expressed luxAB suitable for reporting on the presence of a viable S. aureus.
(§2) In addition, the antibiotic cefoxitin was added prior to, simultaneously with, or after the addition of the transduction particles to a sample containing S. aureus cells.

MRSA = assay: as above; assay type: cell-based, S. aureus; settings: cells phenotypically resistant to cefoxitin (MRSA); cefoxitin added prior to, simultaneously with, or after transduction particles
From the text: as §1, §2

CO[C@@]1(NC(=O)Cc2cccs2)C(=O)N2C(C(=O)O)=C(COC(N)=O)CS[C@@H]21 [cefoxitin]
luminescence (MSSA): decreased or eliminated
luminescence (MRSA): increased or detectable luminescence
